Laboratory results taken from patent US20250049748A1, “ANALOGS OF 4-BROMO-2,5-DIMETHOXYPHENETHYLAMINE” (Terran Biosciences Inc., priority 2021, published 2025).
Where “and” joins values, the source holds several entries; their conditions need not be identical. Identical values can stand only once.

Assay: Pharmacokinetic study in rats: plasma 2C-B after IV/PO 2C-B or PO 2C-B prodrugs
Details: for Tlast / AUC0-inf / AUC0-last / Cmax / T1/2 / AUC(0-t) / half-life / Tmax: analyte 2C-B in plasma; for AUC(0-t): AUC0-last
[1] = 2C-B dosed IV 1 mg/kg, male SD rats, individual animals, 1 mg/kg
[2] = 2C-B dosed oral 5 mg/kg, male SD rats, individual animals, 5 mg/kg
[3] = 2C-B dosed oral 10 mg/kg, male SD rats, individual animals, 10 mg/kg
[4] = male, Sprague-Dawley, rat, plasma, po, 5 mg/kg, 2C-B dosed oral 5 mg/kg, male SD rats, mean
[5] = oral dosing of 2C-B prodrug, rat, time 0.500 h, individual animal
[6] = oral dosing of 2C-B prodrug, rat, time 0.500 h, mean
[7] = oral dosing of 2C-B prodrug, rat, time 1.00 h, individual animal
[8] = oral dosing of 2C-B prodrug, rat, time 1.00 h, mean
[9] = oral dosing of 2C-B prodrug, rat, time 2.00 h, individual animal
[10] = oral dosing of 2C-B prodrug, rat, time 2.00 h, mean
[11] = oral dosing of 2C-B prodrug, rat, time 4.00 h, individual animal
[12] = oral dosing of 2C-B prodrug, rat, time 4.00 h, mean
[13] = oral dosing of 2C-B prodrug, rat, time 7.00 h, individual animal
[14] = oral dosing of 2C-B prodrug, rat, time 7.00 h, mean
[15] = oral dosing of 2C-B prodrug, rat, time 24.0 h, individual animal
[16] = oral dosing of 2C-B prodrug, rat, time 24.0 h, mean

Question: For `COc1cc(CCN)c(OC)cc1Br` [Example 2C-B, 4-bromo-2,5-dimethoxyphenethylamine], which Tlast (2C-B dosed IV 1 mg/kg, male SD rats, Mean* row (median calculated for Tlast)) is on record?
Answer: 2 h

Question: What about the Tlast (2C-B dosed IV 1 mg/kg, male SD rats, individual animals) of the same compound?
Answer: 2 h

Question: And the AUC0-inf [1]?
Answer: 72.0 ng·h/mL and 57.8 ng·h/mL

Question: What about the AUC0-last [1] of the same compound?
Answer: 71.0 ng·h/mL and 56.8 ng·h/mL

Question: And the Cmax [1]?
Answer: 85.0 ng/mL and 68.8 ng/mL

Question: And the T1/2 [1]?
Answer: 20.3 min and 22.2 min

Question: What about the AUC0-inf [2] of the same compound?
Answer: 92.0 ng·h/mL and 115 ng·h/mL and 193 ng·h/mL

Question: What about the AUC0-last [2] of the same compound?
Answer: 69.0 ng·h/mL and 103 ng·h/mL and 159 ng·h/mL

Question: What about the Cmax [2] of the same compound?
Answer: 29.5 ng/mL and 53.5 ng/mL

Question: What about the T1/2 [2] of the same compound?
Answer: 251 min and 454 min and 732 min

Question: What about the Tlast [2] of the same compound?
Answer: 7.00 h and 24.0 h (2×)

Question: What about the Tlast (2C-B dosed oral 5 mg/kg, male SD rats, mean) of the same compound?
Answer: 18.3 h

Question: What about the Tlast (2C-B dosed oral 10 mg/kg, male SD rats, Mean* row (median calculated for Tlast)) of the same compound?
Answer: 7.0 h

Question: And the AUC0-inf [3]?
Answer: 66.8 ng·h/mL and 26.1 ng·h/mL

Question: What about the AUC0-last [3] of the same compound?
Answer: 40.9 ng·h/mL and 64.3 ng·h/mL and 23.8 ng·h/mL

Question: And the Cmax [3]?
Answer: 29.4 ng/mL and 37.9 ng/mL and 11.3 ng/mL

Question: And the T1/2 [3]?
Answer: 134 min

Question: What about the Tlast [3] of the same compound?
Answer: 2 h and 7 h (2×)

Question: And the AUC0-inf (male, Sprague-Dawley, rat, plasma, iv, 1 mg/kg, AUC0-inf, 2C-B dosed IV 1 mg/kg, male SD rats, individual animals)?
Answer: 68.6 ng·h/mL

Question: And the AUC0-inf (male, Sprague-Dawley, rat, plasma, iv, 1 mg/kg, AUC0-inf, 2C-B dosed IV 1 mg/kg, male SD rats, mean of 3 animals)?
Answer: 66.1 ng·h/mL

Question: What about the AUC(0-t) (male, Sprague-Dawley, rat, plasma, iv, 1 mg/kg, 2C-B dosed IV 1 mg/kg, male SD rats, individual animals) of the same compound?
Answer: 65.6 ng·h/mL

Question: And the AUC(0-t) (male, Sprague-Dawley, rat, plasma, iv, 1 mg/kg, 2C-B dosed IV 1 mg/kg, male SD rats, mean of 3 animals)?
Answer: 64.5 ng·h/mL

Question: And the Cmax (male, Sprague-Dawley, rat, plasma, iv, 1 mg/kg, Cmax, 2C-B dosed IV 1 mg/kg, male SD rats, individual animals)?
Answer: 72 ng/mL

Question: What about the Cmax (male, Sprague-Dawley, rat, plasma, iv, 1 mg/kg, Cmax, 2C-B dosed IV 1 mg/kg, male SD rats, mean of 3 animals) of the same compound?
Answer: 75.3 ng/mL

Question: And the half-life (male, Sprague-Dawley, rat, plasma, iv, 1 mg/kg, T1/2, 2C-B dosed IV 1 mg/kg, male SD rats, individual animals)?
Answer: 27.3 min

Question: What about the half-life (male, Sprague-Dawley, rat, plasma, iv, 1 mg/kg, T1/2, 2C-B dosed IV 1 mg/kg, male SD rats, mean of 3 animals) of the same compound?
Answer: 23.3 min

Question: And the AUC0-inf (male, Sprague-Dawley, rat, plasma, po, 5 mg/kg, AUC0-inf, 2C-B dosed oral 5 mg/kg, male SD rats, mean)?
Answer: 133 ng·h/mL

Question: And the AUC(0-t) [4]?
Answer: 110 ng·h/mL

Question: And the Cmax (male, Sprague-Dawley, rat, plasma, po, 5 mg/kg, Cmax, 2C-B dosed oral 5 mg/kg, male SD rats, individual animals)?
Answer: 30.1 ng/mL

Question: What about the Cmax (male, Sprague-Dawley, rat, plasma, po, 5 mg/kg, Cmax, 2C-B dosed oral 5 mg/kg, male SD rats, mean) of the same compound?
Answer: 37.7 ng/mL

Question: What about the half-life (male, Sprague-Dawley, rat, plasma, po, 5 mg/kg, T1/2, 2C-B dosed oral 5 mg/kg, male SD rats, mean) of the same compound?
Answer: 479 min

Question: And the Tmax (male, Sprague-Dawley, rat, plasma, po, 5 mg/kg, 2C-B dosed oral 5 mg/kg, male SD rats, individual animals)?
Answer: 30 min

Question: And the Tmax [4]?
Answer: 30 min

Question: What about the AUC0-inf (male, Sprague-Dawley, rat, plasma, po, 10 mg/kg, AUC0-inf, 2C-B dosed oral 10 mg/kg, male SD rats, mean) of the same compound?
Answer: 46.5 ng·h/mL

Question: What about the AUC(0-t) (male, Sprague-Dawley, rat, plasma, po, 10 mg/kg, 2C-B dosed oral 10 mg/kg, male SD rats, mean) of the same compound?
Answer: 43 ng·h/mL

Question: And the Cmax (male, Sprague-Dawley, rat, plasma, po, 10 mg/kg, Cmax, 2C-B dosed oral 10 mg/kg, male SD rats, mean)?
Answer: 26.2 ng/mL

Question: And the half-life (male, Sprague-Dawley, rat, plasma, po, 10 mg/kg, T1/2, 2C-B dosed oral 10 mg/kg, male SD rats, individual animals)?
Answer: 99 min

Question: What about the half-life (male, Sprague-Dawley, rat, plasma, po, 10 mg/kg, T1/2, 2C-B dosed oral 10 mg/kg, male SD rats, mean) of the same compound?
Answer: 116 min

Question: And the Tmax (male, Sprague-Dawley, rat, plasma, po, 10 mg/kg, 2C-B dosed oral 10 mg/kg, male SD rats, Mean* row (median calculated for Tmax))?
Answer: 30 min

Question: What about the Tmax (male, Sprague-Dawley, rat, plasma, po, 10 mg/kg, 2C-B dosed oral 10 mg/kg, male SD rats, individual animals) of the same compound?
Answer: 60 min

Question: For `COc1cc(CCNC(C)=O)c(OC)cc1Br` [Example 4, N-(4-bromo-2,5-dimethoxyphenethyl)acetamide], which “Plasma Concentrations of metabolite 2C-B Following Oral Dosing” value (“Plasma Concentrations” below) (prodrug oral 10 mg/kg, male SD rats, time 0.500 h, individual animals) is on record?
Answer: BLQ (BLQ: Below Lower Limit of Quanification (0.5 ng/mL))

Question: And the “Plasma Concentrations” value (prodrug oral 10 mg/kg, male SD rats, time 0.500 h, mean)?
Answer: BLQ (BLQ: Below Lower Limit of Quanification (0.5 ng/mL))

Question: What about the “Plasma Concentrations” value (prodrug oral 10 mg/kg, male SD rats, time 1.00 h, individual animals) of the same compound?
Answer: BLQ (BLQ: Below Lower Limit of Quanification (0.5 ng/mL))

Question: And the “Plasma Concentrations” value (prodrug oral 10 mg/kg, male SD rats, time 1.00 h, mean)?
Answer: BLQ (BLQ: Below Lower Limit of Quanification (0.5 ng/mL))

Question: And the “Plasma Concentrations” value (prodrug oral 10 mg/kg, male SD rats, time 2.00 h, individual animals)?
Answer: BLQ (BLQ: Below Lower Limit of Quanification (0.5 ng/mL))

Question: And the “Plasma Concentrations” value (prodrug oral 10 mg/kg, male SD rats, time 2.00 h, mean)?
Answer: BLQ (BLQ: Below Lower Limit of Quanification (0.5 ng/mL))

Question: And the “Plasma Concentrations” value (prodrug oral 10 mg/kg, male SD rats, time 4.00 h, individual animals)?
Answer: BLQ (BLQ: Below Lower Limit of Quanification (0.5 ng/mL))

Question: What about the “Plasma Concentrations” value (prodrug oral 10 mg/kg, male SD rats, time 4.00 h, mean) of the same compound?
Answer: BLQ (BLQ: Below Lower Limit of Quanification (0.5 ng/mL))

Question: What about the “Plasma Concentrations” value (prodrug oral 10 mg/kg, male SD rats, time 7.00 h, individual animals) of the same compound?
Answer: BLQ (BLQ: Below Lower Limit of Quanification (0.5 ng/mL))

Question: What about the “Plasma Concentrations” value (prodrug oral 10 mg/kg, male SD rats, time 7.00 h, mean) of the same compound?
Answer: BLQ (BLQ: Below Lower Limit of Quanification (0.5 ng/mL))

Question: What about the “Plasma Concentrations” value (prodrug oral 10 mg/kg, male SD rats, time 24.0 h, individual animals) of the same compound?
Answer: BLQ (BLQ: Below Lower Limit of Quanification (0.5 ng/mL))

Question: And the “Plasma Concentrations” value (prodrug oral 10 mg/kg, male SD rats, time 24.0 h, mean)?
Answer: BLQ (BLQ: Below Lower Limit of Quanification (0.5 ng/mL))

Question: With `COc1cc(CCNC(=O)C(F)(F)F)c(OC)cc1Br` [Example 5, N-(4-bromo-2,5-dimethoxyphenethyl)-2,2,2-trifluoroacetamide] as the compound, how does the “Plasma Concentrations” value [5] read?
Answer: BLQ (BLQ: Below Lower Limit of Quanification (0.5 ng/mL))

Question: And the “Plasma Concentrations” value [6]?
Answer: BLQ (BLQ: Below Lower Limit of Quanification (0.5 ng/mL))

Question: What about the “Plasma Concentrations” value [7] of the same compound?
Answer: BLQ (BLQ: Below Lower Limit of Quanification (0.5 ng/mL))

Question: What about the “Plasma Concentrations” value [8] of the same compound?
Answer: BLQ (BLQ: Below Lower Limit of Quanification (0.5 ng/mL))

Question: What about the “Plasma Concentrations” value [9] of the same compound?
Answer: BLQ (BLQ: Below Lower Limit of Quanification (0.5 ng/mL))

Question: And the “Plasma Concentrations” value [10]?
Answer: BLQ (BLQ: Below Lower Limit of Quanification (0.5 ng/mL))

Question: What about the “Plasma Concentrations” value [11] of the same compound?
Answer: BLQ (BLQ: Below Lower Limit of Quanification (0.5 ng/mL))

Question: And the “Plasma Concentrations” value [12]?
Answer: BLQ (BLQ: Below Lower Limit of Quanification (0.5 ng/mL))

Question: And the “Plasma Concentrations” value [13]?
Answer: BLQ (BLQ: Below Lower Limit of Quanification (0.5 ng/mL))

Question: And the “Plasma Concentrations” value [14]?
Answer: BLQ (BLQ: Below Lower Limit of Quanification (0.5 ng/mL))

Question: And the “Plasma Concentrations” value [15]?
Answer: BLQ (BLQ: Below Lower Limit of Quanification (0.5 ng/mL))

Question: What about the “Plasma Concentrations” value [16] of the same compound?
Answer: BLQ (BLQ: Below Lower Limit of Quanification (0.5 ng/mL))

Question: What does the source list for `COc1cc(CCNC(=O)CN(C)C(=O)[C@H](Cc2ccccc2)NC(=O)OC(C)(C)C)c(OC)cc1Br` [Example 10, tert-butyl (S)-(1-((2-((4-bromo-2,5-dimethoxyphenethyl)amino)-2-oxoethyl)(methyl)amino)-1-oxo-3-phenylpropan-2-yl)carbamate]?
Answer: Plasma Concentrations of metabolite 2C-B Following Oral Dosing [5]: BLQ (BLQ: Below Lower Limit of Quanification (0.5 ng/mL)); Plasma Concentrations of metabolite 2C-B Following Oral Dosing [6]: BLQ (BLQ: Below Lower Limit of Quanification (0.5 ng/mL)); Plasma Concentrations of metabolite 2C-B Following Oral Dosing [7]: BLQ (BLQ: Below Lower Limit of Quanification (0.5 ng/mL)); Plasma Concentrations of metabolite 2C-B Following Oral Dosing [8]: BLQ (BLQ: Below Lower Limit of Quanification (0.5 ng/mL)); Plasma Concentrations of metabolite 2C-B Following Oral Dosing [9]: BLQ (BLQ: Below Lower Limit of Quanification (0.5 ng/mL)); Plasma Concentrations of metabolite 2C-B Following Oral Dosing [10]: BLQ (BLQ: Below Lower Limit of Quanification (0.5 ng/mL)); Plasma Concentrations of metabolite 2C-B Following Oral Dosing [11]: BLQ (BLQ: Below Lower Limit of Quanification (0.5 ng/mL)); Plasma Concentrations of metabolite 2C-B Following Oral Dosing [12]: BLQ (BLQ: Below Lower Limit of Quanification (0.5 ng/mL)); Plasma Concentrations of metabolite 2C-B Following Oral Dosing [13]: BLQ (BLQ: Below Lower Limit of Quanification (0.5 ng/mL)); Plasma Concentrations of metabolite 2C-B Following Oral Dosing [14]: BLQ (BLQ: Below Lower Limit of Quanification (0.5 ng/mL)); Plasma Concentrations of metabolite 2C-B Following Oral Dosing [15]: BLQ (BLQ: Below Lower Limit of Quanification (0.5 ng/mL)); Plasma Concentrations of metabolite 2C-B Following Oral Dosing [16]: BLQ (BLQ: Below Lower Limit of Quanification (0.5 ng/mL))
